The target in this assay is T1, GPR119 (Homo sapiens, UniProt Q8TDV5).
T1 construct: expressed in transfected cells
T1 sequence (Q8TDV5 1-335): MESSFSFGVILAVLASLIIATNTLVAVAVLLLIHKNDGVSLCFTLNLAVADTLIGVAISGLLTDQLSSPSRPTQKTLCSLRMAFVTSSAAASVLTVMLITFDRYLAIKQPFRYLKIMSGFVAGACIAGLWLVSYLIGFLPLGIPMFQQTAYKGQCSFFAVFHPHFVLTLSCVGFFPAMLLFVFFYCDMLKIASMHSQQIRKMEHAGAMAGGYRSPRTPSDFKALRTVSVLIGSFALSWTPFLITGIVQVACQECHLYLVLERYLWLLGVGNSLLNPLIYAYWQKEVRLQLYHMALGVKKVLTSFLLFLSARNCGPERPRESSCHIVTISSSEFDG
Briefly: Stimulation of cAMP in CHO cells stably expressing GPR119 (HTRF/FRET cAMP immunoassay). In kind it is cell-based. The settings on record: 3 μM compound, 30 min, relative to maximal activity (=100%) of reference agonist 4-(4-{4-Nitro-3-[4-(pyridin-2-ylsulfanyl)-piperidin-1-yl]-phenoxy}-phenyl)-butan-2-one or 4-[6-(4-Methanesulfonyl-phenyl-amino)-5-nitro-pyrimidin-4-yl-oxy]-piperidine-1-carboxylic acid tert-butyl ester. As for the experimental part: This assay was developed using a stable cell line expressing GPR119, generated as follows. GPR119 (co-pending, co-owned patent application U.S. Ser. No. 11/964,461) was cloned into Gateway pDEST 40vector (Invitrogen), using the Gateway cloning system (invitrogen) according to the manufacturer's instructions. A stable cell line was generated by transfecting a 10 cm plate of CHO cells (source) with 8 μg of this construct using Transit-CHO transfection kit (Mirus). CHO cells were plated the day prior to transfection at a density of 3,000,000 cells/plate. Clones were selected using the antibiotic G418 at 500 μg/mL. 23 clones were picked and assayed for the expression of the receptor by measuring changes in intracellular cAMP levels in response to a known GPR119 agonist.
To measure cAMP activity in response to GPR119 agonist, the clones were plated in 96 well plates at 17500 cells per well. On the day after plating, cells were incubated with the GPR119 agonist at 10 μM for 30 minutes in Ham's F12 Media (Gibco) with 0.04% DMSO. cAMP was measured using the cAMP dynamic kit from C is Bio (Bedford, Mass.) according to the manufacturer's instructions. Briefly, cells were lysed, and cAMP levels determined by competitive immunoassay using D2 labeled cAMP, and europium cryptate tagged anti cAMP antibody. When in close proximity, the D2 and europium cryptate undergo fluorescence resonance energy transfer (FRET), which is measured as a fluorescence ratio (665 nm/620 nm). Unlabelled cAMP in the cell lysate competed with the D2 labeled cAMP for the europium crypate labeled antibody. The resulting decrease in FRET signal corresponded to intracellular cAMP levels. Fluorescence was read on a BMG Labtech PHERAstar, software version 1.50.
The clone with the greatest response to IC-GPCR2 agonist was selected for the screening assay.
Compounds were dissolved in 100% DMSO to a concentration of […] to provide stock solutions. To determine activity against GPR119, compounds were incubated with GPR119 stably expressing cells (described above), at 6-8 concentrations ranging from 0.00003 to 10 micromolar, in 96 well plates, in 50 μl of Ham's F12 media for 30 minutes. Cells were plated at 17500 cells per well 1 day before running the assay. All compounds were also screened against the parental CHO cells. cAMP was measured using the cAMP dynamic kit from C is Bio (Bedford, Mass.), according to the manufacturer's instructions. Briefly, cells were lysed and cAMP levels determined by competitive immunoassay using D2 labeled cAMP, and europium cryptate tagged anti cAMP antibody. When in close proximity, the D2 and europium cryptate undergo fluorescence resonance energy transfer (FRET), which is measured as a fluorescence ratio (665 nm/620 nm). Unlabelled cAMP in the cell lysate competed with the D2 labeled cAMP for the europium crypate labeled antibody. The resulting decrease in FRET signal corresponded to intracellular cAMP levels.
To determine percent activity for a tested compound, the FRET signal value obtained at a particular concentration are compared to the Maximal FRET signal value obtained for 4-(4-{4-Nitro-3-[4-(pyridin-2-ylsulfanyl)-piperidin-1-yl]-phenoxy}-phenyl)-butan-2-one (WO 2004/076,413) or 4-[6-(4-Methanesulfonyl-phenyl-amino)-5-nitro-pyrimidin-4-yl-oxy]-piperidine-1-carboxylic acid tert-butyl ester (US 2005/070,562). The maximal activity of 4-(4-{4-Nitro-3-[4-(pyridin-2-ylsulfanyl)-piperidin-1-yl]-phenoxy}-phenyl)-butan-2-one or 4-[6-(4-Methanesulfonyl-phenyl-amino)-5-nitro-pyrimidin-4-yl-oxy]-piperidine-1-carboxylic acid tert-butyl ester is designated as 100% activity. Typically, the concentration 4-(4-{4-Nitro-3-[4-(pyridin-2-ylsulfanyl)-piperidin-1-yl]-phenoxy}-phenyl)-butan-2-one or 4-[6-(4-Methanesulfonyl-phenyl-amino)-5-nitro-pyrimidin-4-yl-oxy]-piperidine-1-carboxylic acid tert-butyl ester was approximately 10 μM. […]
Background: Time-resolved FRET reads energy transfer from a long-lived donor to a nearby acceptor.

These results are taken from patent US20110160222A1, “MODULATORS OF GLUCOSE HOMEOSTASIS FOR THE TREATMENT OF DIABETES AND METABOLIC DISORDERS” (Metabolex, Inc., priority 2008, published 2011).

The structures appear in SMILES notation.

Regarding `CC(C)(C)OC(=O)N1CCC(n2ncc3c(Oc4ccc(S(C)(=O)=O)cc4)ncnc32)CC1` [Example 1, tert-butyl 4-(4-(4-(methylsulfonyl)phenoxy)-1H-pyrazolo[3,4-d]pyrimidin-1-yl)piperidine-1-carboxylate], the “% Activity at 3 uM” value is 59.01%. As for `COc1ccc(Oc2ncnc3c2cnn3C2CCN(C(=O)OC(C)(C)C)CC2)cc1` [Example 2, tert-butyl 4-(4-(4-methoxyphenoxy)-1H-pyrazolo[3,4-d]pyrimidin-1-yl)piperidine-1-carboxylate], the “% Activity at 3 uM” value was determined as 69.8%. The same measure for `CC(C)(C)OC(=O)N1CCC(n2ncc3c(Oc4ccc(Oc5ccc(C(F)(F)F)cc5)cc4)ncnc32)CC1` [Example 3, tert-butyl 4-(4-(4-(4-(trifluoromethyl)phenoxy)phenoxy)-1H-pyrazolo[3,4-d]pyrimidin-1-yl)piperidine-1-carboxylate]: 12.73%. In the case of `CC(C)(C)OC(=O)N1CCC(n2ncc3c(Oc4ccc(-n5ccnc5)cc4)ncnc32)CC1` [Example 4, tert-butyl 4-(4-(4-(1H-imidazol-1-yl)phenoxy)-1H-pyrazolo[3,4-d]pyrimidin-1-yl)piperidine-1-carboxylate] it was 69.49%; in that of `CC(C)(C)OC(=O)N1CCC(n2ncc3c(Sc4ccc(S(C)(=O)=O)cc4)ncnc32)CC1` [Example 5, tert-butyl 4-(4-(4-(methylsulfonyl)phenylthio)-1H-pyrazolo[3,4-d]pyrimidin-1-yl)piperidine-1-carboxylate], 60.11%; in that of `CC(C)(C)OC(=O)N1CCC(n2ncc3c(Oc4ccc(Oc5ccccc5)cc4)ncnc32)CC1` [Example 6, tert-butyl 4-(4-(4-phenoxyphenoxy)-1H-pyrazolo[3,4-d]pyrimidin-1-yl)piperidine-1-carboxylate], 56.96%. In the case of `CC(C)(C)OC(=O)N1CCC(Cn2ncc3c(Oc4ccc(S(C)(=O)=O)cc4)ncnc32)CC1` [Example 50, tert-butyl 4-((4-(4-(methylsulfonyl)phenoxy)-1H-pyrazolo[3,4-d]pyrimidin-1-yl)methyl)piperidine-1-carboxylate] it was 59.61%; in that of `CC(C)(C)OC(=O)N1CCC(Cn2ncc3c(Oc4ccc(S(C)(=O)=O)cc4)ncnc32)C1` (stereo not shown) [Example 61, tert-butyl 3-((4-(4-(methylsulfonyl)phenoxy)-1H-pyrazolo[3,4-d]pyrimidin-1-yl)methyl)pyrrolidine-1-carboxylate], 74.66%; in that of `CC(C)(C)OC(=O)N1CCC(Cn2ncc3c(Oc4ccc(-n5cncn5)cc4)ncnc32)C1` (stereo not shown) [Example 62, tert-butyl 3-((4-(4-(1H-1,2,4-triazol-1-yl)phenoxy)-1H-pyrazolo[3,4-d]pyrimidin-1-yl)methyl)pyrrolidine-1-carboxylate], 67.37%. `CC(C)CS(=O)(=O)N1CCC(n2ncc3c(Oc4ccc(S(C)(=O)=O)cc4)ncnc32)CC1` [Example 63, 1-(1-(isobutylsulfonyl)piperidin-4-yl)-4-(4-(methylsulfonyl)phenoxy)-1H-pyrazolo[3,4-d]pyrimidine]: the “% Activity at 3 uM” value is reported as 51.02%. The same measure for `Cc1ccc(S(=O)(=O)N2CCC(n3ncc4c(Oc5ccc(S(C)(=O)=O)cc5)ncnc43)CC2)cc1` [Example 64, 4-(4-(methylsulfonyl)phenoxy)-1-(1-tosylpiperidin-4-yl)-1H-pyrazolo[3,4-d]pyrimidine]: 2.07%; for `CS(=O)(=O)c1ccc(Oc2ncnc3c2cnn3C2CCN(S(=O)(=O)Cc3ccccc3)CC2)cc1` [Example 65, 1-(1-(benzylsulfonyl)piperidin-4-yl)-4-(4-(methylsulfonyl)phenoxy)-1H-pyrazolo[3,4-d]pyrimidine]: 24.15%. In the case of `CS(=O)(=O)c1ccc(Oc2ncnc3c2cnn3C2CCN(S(=O)(=O)C3CC3)CC2)cc1` [Example 66, 1-(1-(cyclopropylsulfonyl)piperidin-4-yl)-4-(4-(methylsulfonyl)phenoxy)-1H-pyrazolo[3,4-d]pyrimidine] it was 9.73%.

In the case of `CN(c1ccc(S(C)(=O)=O)cc1)c1ncnc2c1nnn2C1CCN(C(=O)OC(C)(C)C)CC1` [Example 67, tert-butyl 4-(7-(methyl(4-(methylsulfonyl)phenyl)amino)-3H-[1,2,3]triazolo[4,5-d]pyrimidin-3-yl)piperidine-1-carboxylate], the “% Activity at 3 uM” value came to 1.95%. The same measure for `CC(C)(C)OC(=O)N1CCC(n2nnc3c(Oc4ccc(S(C)(=O)=O)cc4)ncnc32)CC1` [Example 68, tert-butyl 4-(7-(4-(methylsulfonyl)phenoxy)-3H-[1,2,3]triazolo[4,5-d]pyrimidin-3-yl)piperidine-1-carboxylate]: 59.01%; for `CCOC(=O)N1CCC(n2nnc3c(Oc4ccc(S(C)(=O)=O)cc4)ncnc32)CC1` [Example 69, ethyl 4-(7-(4-(methylsulfonyl)phenoxy)-3H-[1,2,3]triazolo[4,5-d]pyrimidin-3-yl)piperidine-1-carboxylate]: 48.23%.
